Experimental data from article PMC10566475, “A cell-active cyclic peptide targeting the Nrf2/Keap1 protein–protein interaction” (Chemical Science, 2023).
*1 amine or outer side, *2 acyl side, *3 side chain or, on linkers, in order; H or OH if unused. Where a SMILES comes first, the peptide text is derived from it. Bridges are numbered along the chain shown (N, C = ends). Roman numbers before positions name the chains, in order. [ ]: non-standard residue; d: D form. X3 = CCCCCCCCCCCCCCCCCC(=O)NCCCC[C@H](NC(=O)COCCOCCNC(=O)COCCOCCn1cc(COCCOCCNc2nc(CC[*:1])cc(CC[*:2])n2)nn1)C(=O)NCCOCCOCC(=O)NCCOCCOCC(N)=O; X2 = O=C(CCCCn1cc(COCCOCCNc2nc(CC[*:1])cc(CC[*:2])n2)nn1)[*:3]

Tests used:
[1] = system: NQO1 gene expression in BEAS-2B cells (Homo sapiens); assay: BEAS-2B NQO1 assay (qPCR of NQO1 mRNA); assay type: cell-based; conditions: 24 h, concentrations of up to 10 μM
Source text: The effect of peptides on Nrf2-dependent gene expression was investigated in BEAS-2B cells, where we determined the upregulation of the mRNA of NAD(P)H quinone dehydrogenase (NQO1) by qPCR. The expression of NQO1 is Nrf2-dependent and it is one of the two major quinone reductases, which play a crucial role in protecting cells from oxidative stress.[40] ^§§ In the context of this study we chose BEAS-2B cells as a representative model for epithelial cells. The presence of serum has been reported to affect BEAS-2B cell phenotype. Specifically, exposure of BEAS-2B to FBS has been associated with squamous differentiation, alteration in cytokine secretion and response to toxicants.[42–44] […] In order to improve the cellular uptake, we took of advantage of the 2C-PS moiety, which not only allows the easy synthesis of a variety of macrocycles of different ring sizes, but also permits the facile introduction of a diverse set of moieties, which could enhance cell permeability. We pursued a diverse set of strategies to make the Keap1 peptide more cell permeable, namely: masking of the acidic amino acids with methyl esters, introduction of polyarginine peptides, GWWG-polyarginine peptides or a long-chain fatty acid tag onto the staple, as well as peptide shortening and a combination of these. The rationale behind these strategies is explained herein, and details of their synthesis can be found in the ESI. ^†
Cellular Biology Experimental
(Thermo Fisher Scientific, USA).
calculated using QunatStudio 7 software.

[2] = biological target: T1, interaction between the human Keap1 Kelch domain and an Nrf2-ETGE peptide (Homo sapiens, UniProt Q14145); assay: Keap1-Nrf2 TR-FRET (HTRF) assay; assay type: binding; conditions: Table 1; geometric mean ± sd of at least 3 independent repeats unless stated; read-out: TR-FRET IC50
T1 construct: 1nM purified human Keap1 Kelch domain (A321-T609) fused with N-terminal 6x His-tag; made in house
Source text: (§1) We based the design of our Nrf2-like cyclic peptides around the amino acid sequence of the ETGE motif (namely 12-mer ^73[…]^84L) and SAR studies reported in the literature.[9,10,12,14] The […] motif is known to adopt a beta-turn conformation upon binding to Keap1. Residues Q73-Q75 and L85 stabilise the bound conformation, L76-D77 and E79-G81 bind deep into the pocket with E79 and E82 forming electrostatic interactions with Keap1 and D77 and T80 stabilising the beta-turn via H-bonds with E78 not contributing to the binding. […] The ability of the cyclic peptides to bind to the Kelch domain of Keap1 was evaluated using surface plasma resonance (SPR), where the Kelch domain is immobilised onto a SPR sensor chip. Additionally, we assessed the ability of the peptides to inhibit the PPI between Nrf2 and the Kelch domain of Keap1 using a time-resolved FRET (TR-FRET) assay. Here, the IC50 for inhibition of the interaction between the human Keap1 Kelch domain and an Nrf2-ETGE peptide is measured.
(§2) Surface Plasmon Resonance (SPR)
(§3) Peptide affinities to the Kelch domain of Keap1 is determined in a direct binding assay using 8K surface plasmon resonance (SPR) biosensor (Cytiva) at 20°C. Immobilization of Keap1 Kelch domain on a CM5 sensor chip (Cytiva) is performed using standard amine coupling procedure. The surface is washed with 10mM NaOH, 1M NaCl before activated with EDC/NHS (Cytiva), followed by immobilization of human Keap1 Kelch domain (A321-T609) fused with N-terminal 6x His-tag7 (in 10 mM MES, pH=6.4).
(§4) Finally, the surface is deactivated by Ethanolamine. Immobilization levels are typically 5000-6000 RU.
(§5) The reference spot is treated as described, omitting the injection of Keap1. Compound concentration series are injected over the immobilized protein in increasing concentrations using single cycle kinetics (SCK) in running buffer (10 mM HEPES, 150 mM NaCl, 0.05% Tween20, 1 mM TCEP, pH 7.4). A 1:1 Langmuir interaction model is fitted to the experimental traces, enabling determination of kon, koff and […]
(§6) In the time-resolved Förster resonance energy transfer (TR-FRET) assay8 the IC50 of inhibitors which […]
(§7) are determined. The TR-FRET is measured between a Tb-labelled mAb (Anti—6-His, Tb cryptate Gold, CisBio 61H12TLB) that binds to Keap 1 Kelch domain and d2-labelled SA-biotin-peptide.
(§8) The assay was performed in 384-well white low-volume, medium binding plates (Greiner Bio One, Austria) in 20 mM HEPES pH 7.5, 150 mM NaCl, 2 mM GSH (Sigma-Aldrich, USA),1mM EDTA (Sigma-Aldrich, USA), and 0.01% Pluronic F127 (MilliporeSigma, USA), with a final reaction volume of 10 µL.
(§9) To determine the ability of synthesized peptide to inhibit PPI between the Keap1 Kelch domain and Nrf2, 1nM purified human Keap1 Kelch domain (A321-T609) fused with N-terminal 6x His-tag, 5 nM biotinylated Nrf2 peptide ([…], Genescript, USA), d2-labeled streptavidin (Revvity, USA), and […] anti-His monoclonal antibody tagged with terbium cryptate (Revvity, USA), were incubated in the presence of varying concentrations of investigated peptides for 3 h at room […]
(§10) 7 Li X, Zhang D, Hannink M, Beamer LJ. Crystallization and initial crystallographic analysis of the Kelch domain from human Keap1. Acta
(§11) 8 S. Lee, D. Ali Abed, L. J. Beamer, L. Hu, Development of a Homogeneous Time-Resolved Fluorescence Resonance Energy Transfer (TR-
Following the incubation, the PHERAstar FSX […] microplate reader was used to measure the acceptor and donor emissions at 665 nm and 620 nm, respectively. The acceptor/donor ratio was used to calculate relative energy transfer. Data was normalized by two-point normalization using neutral and inhibitor controls (neutral control: DMSO, inhibitor control: 0.1nM 2-[[4-[carboxymethyl-(4-methoxyphenyl)sulfonylamino]naphthale n-1-yl]-(4-methoxyphenyl)sulfonylamino]acetic acid; […]
parameter logistic fit and IC50 values were calculated using Genedata screener software (Genedata, […]

[3] = biological target: T2, human Keap1 Kelch domain (A321-T609) (Homo sapiens, UniProt Q14145); assay: Surface plasmon resonance (SPR) direct binding assay, immobilised Keap1 Kelch domain; conditions: Table 1
T2 construct: human Keap1 Kelch domain (A321-T609) fused with N-terminal 6x His-tag; 6xHis (N); made in house
Source text: as §1, §2, §3, §4, §5, §6, §7, §8, §9, §10, §11

[4] = system: BEAS-2B cells; assay: CellTiter Glo assay; conditions: P8-H tested up to 30 μM
Source text: performed according to manufacturer instruction and using BEAS-2B cells

[5] = single cycle kinetics, 1:1 Langmuir model

T2 sequence (Q14145 321-609): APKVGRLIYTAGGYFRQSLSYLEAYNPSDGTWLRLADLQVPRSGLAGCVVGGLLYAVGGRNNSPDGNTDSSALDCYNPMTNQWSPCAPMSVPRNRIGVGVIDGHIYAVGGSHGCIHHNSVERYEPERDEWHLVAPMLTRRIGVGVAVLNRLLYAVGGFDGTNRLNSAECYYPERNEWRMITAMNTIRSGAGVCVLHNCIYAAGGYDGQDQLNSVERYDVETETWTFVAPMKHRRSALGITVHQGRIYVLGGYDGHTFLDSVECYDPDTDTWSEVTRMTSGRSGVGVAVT
Chain of NQO1 gene expression in BEAS-2B cells (Homo sapiens) (Q14145 whole entry): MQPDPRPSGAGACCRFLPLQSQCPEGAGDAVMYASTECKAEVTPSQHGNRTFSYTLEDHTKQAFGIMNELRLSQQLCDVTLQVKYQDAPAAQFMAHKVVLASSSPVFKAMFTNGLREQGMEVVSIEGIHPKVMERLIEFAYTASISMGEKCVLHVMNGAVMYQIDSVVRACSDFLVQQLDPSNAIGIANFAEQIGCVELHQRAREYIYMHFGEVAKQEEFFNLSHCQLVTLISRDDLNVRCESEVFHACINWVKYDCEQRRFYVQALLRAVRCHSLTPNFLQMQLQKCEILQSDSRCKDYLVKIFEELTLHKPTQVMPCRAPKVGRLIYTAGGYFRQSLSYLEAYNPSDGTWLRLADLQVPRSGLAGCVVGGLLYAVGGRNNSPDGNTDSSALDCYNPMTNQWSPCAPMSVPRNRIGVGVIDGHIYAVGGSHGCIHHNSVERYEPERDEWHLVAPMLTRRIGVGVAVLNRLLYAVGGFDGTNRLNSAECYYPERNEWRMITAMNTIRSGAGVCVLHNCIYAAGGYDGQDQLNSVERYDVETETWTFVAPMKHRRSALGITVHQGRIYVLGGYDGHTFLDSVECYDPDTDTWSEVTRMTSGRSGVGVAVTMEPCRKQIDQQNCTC
T1 sequence (Q14145 321-609): as the sequence (Q14145 321-609) above

Compound	induction of NQO1 mRNA (Nrf2-dependent gene expression) [1]	cytotoxicity in CellTiter Glo assay [4]	other results
Ac-LQLDPETGEFL-NH2 [reference compound]	did not lead to any induction		IC50 [2]: 5.3 ± 1.2 nM; Kd ([3]; geometric mean ± sd of at least 3 independent repeats unless stated, 20°C): 52 ± 1.4 nM; koff [3, 5]: 0.0079 s⁻¹; kon [3, 5]: 170000 M⁻¹ s⁻¹
CC(=O)N[C@H]1CSCCc2cc(nc(NCCOCCOCc3cn(CCCCC(=O)NCC(=O)N[C@@H](Cc4c[nH]c5ccccc45)C(=O)N[C@@H](Cc4c[nH]c5ccccc45)C(=O)NCC(=O)N[C@H](CCCNC(=N)N)C(=O)N[C@H](CCCNC(=N)N)C(=O)N[C@H](CCCNC(=N)N)C(N)=O)nn3)n2)CCSC[C@@H](C(=O)N[C@@H](CC(C)C)C(N)=O)NC(=O)[C@H](CCC(=O)O)NC(=O)CNC(=O)[C@H]([C@@H](C)O)NC(=O)[C@H](CCC(=O)O)NC(=O)[C@@H]2CCCN2C(=O)[C@H](CC(=O)O)NC(=O)[C@H](CC(C)C)NC(=O)[C@H](CCC(N)=O)NC(=O)[C@H](CC(C)C)NC1=O [Peptide P3-G] (I: Ac-CLQLDPETGECL-NH2 / II: GWWG[dR][dR][dR]-NH2; linker I:1-I:11-II:N via X2)	no activity was detected		
CC(=O)N[C@H]1CSCCc2cc(nc(NCCOCCOCc3cn(CCCCC(=O)NCC(=O)N[C@@H](Cc4c[nH]c5ccccc45)C(=O)N[C@@H](Cc4c[nH]c5ccccc45)C(=O)NCC(=O)N[C@H](CCCNC(=N)N)C(=O)N[C@H](CCCNC(=N)N)C(=O)N[C@H](CCCNC(=N)N)C(N)=O)nn3)n2)CCSC[C@@H](C(=O)N[C@@H](CC(C)C)C(N)=O)NC(=O)[C@H](CCC(=O)O)NC(=O)CNC(=O)[C@H]([C@@H](C)O)NC(=O)[C@H](CCC(=O)O)NC(=O)[C@@H]2CCCN2C(=O)[C@H](CC(=O)O)NC1=O [Peptide P8-G]	did not lead to any activity		
CCCCCCCCCCCCCCCCCC(=O)NCCCC[C@H](NC(=O)COCCOCCNC(=O)COCCOCCn1cc(COCCOCCNc2nc3cc(n2)CCSC[C@@H](C(=O)N[C@@H](CC(C)C)C(N)=O)NC(=O)[C@H](CCC(=O)O)NC(=O)CNC(=O)[C@H]([C@@H](C)O)NC(=O)[C@H](CCC(=O)O)NC(=O)[C@@H]2CCCN2C(=O)[C@H](CC(=O)O)NC(=O)[C@H](CC(C)C)NC(=O)[C@H](CCC(N)=O)NC(=O)[C@H](CC(C)C)NC(=O)[C@@H](NC(C)=O)CSCC3)nn1)C(=O)NCCOCCOCC(=O)NCCOCCOCC(N)=O [Peptide P3-H] (Ac-CLQLDPETGECL-NH2; linker 1-11 via X3)	did not induce Nrf2-dependent gene expression		
CCCCCCCCCCCCCCCCCC(=O)NCCCC[C@H](NC(=O)COCCOCCn1cc(COCCOCCNc2nc3cc(n2)CCSC[C@@H](C(=O)N[C@@H](CC(C)C)C(N)=O)NC(=O)[C@H](CCC(=O)O)NC(=O)CNC(=O)[C@H]([C@@H](C)O)NC(=O)[C@H](CCC(=O)O)NC(=O)[C@@H]2CCCN2C(=O)[C@H](CC(=O)O)NC(=O)[C@@H](NC(C)=O)CSCC3)nn1)C(=O)NCCOCCOCC(=O)NCCOCCOCC(N)=O [Peptide P8-H]		no cytotoxicity	
CC1(C)CC[C@]2(C(=O)O)CC[C@]3(C)[C@H](C(=O)C=C4[C@@]5(C)C=C(C#N)C(=O)C(C)(C)[C@@H]5CC[C@]43C)[C@@H]2C1 [Bardoxolone, reference compound]		cytotoxic	
